We go through 34 compounds from a melting point compilation (Tetko et al.; mined from patent text by program, amines drawn as free bases though some values may be those of a salt).

By melting point is commonly meant the temperature of the solid-liquid transition. `CC(=O)OCC1OC(n2cc(Cc3ccc(Cl)cc3)c3c(Cl)cccc32)C(OC(C)=O)C(OC(C)=O)C1OC(C)=O` (centres undefined): the melting point fell in the range of 214 to 216 °C.

Compound `CC1(C)Oc2ccc(C(F)(F)F)cc2C(n2ccccc2=O)=C1CN(O)C(=O)C(F)(F)F` gave a melting point of 208 °C.

Compound `CCC(=O)c1cnc2c(O)cccc2c1Nc1ccc(F)cc1C` showed a melting point of 143 to 146 °C.

`NS(=O)(=O)c1cc(C(=O)O)cc([N+](=O)[O-])c1Nc1ccccc1` came in with a melting point of 261 to 262 °C.

Compound `CS(=O)(=O)c1cc(O)ccc1/C=C/c1ccc(O)cc1` yielded a melting point of 244 to 245 °C.

With `CCOC(=O)c1cccc(CCC(CO)n2cnc(C(N)=O)c2)c1` (centres undefined), the melting point fell in the range of 92 to 95 °C.

`N=c1sc2cc(OC(F)(F)F)ccc2n1CCS(=O)c1ccccc1` (racemic) returned a melting point of 210 °C.

For `Cc1cccc(COc2cccc(OCc3coc(-c4ccc(F)cc4)n3)c2)c1C(=O)O`, the melting point is 159 to 160 °C.

As for `COc1ccc(-c2cc(=O)n(Cc3ccccn3)nc2-c2ccc(OC)cc2)cc1`, the melting point fell in the range of 116 to 117 °C.

With `O=C(O)C1SC(c2ccccc2)=NN1C(=O)CCS` (centres undefined), the melting point was in the range of 145 to 146 °C.

In the case of `CCOC(=O)c1c2ccc(Cl)cc2c(-c2ccccc2)n1CCC(C)(C)CCBr`, the melting point was 87 to 88 °C.

`CCOC(=O)c1cc(C#N)c(C=O)nc1NC(C)CC` (centres undefined) registered a melting point of 37 to 38 °C.

`COc1cncnc1N1CCN(CCCc2c[nH]c3ccc(CN(C)S(C)(=O)=O)cc23)CC1` came in with a melting point of 164 to 165 °C.

`CC(=O)c1ccc(N2CCN(Cc3n[nH]c4ccccc34)CC2)cc1` showed a melting point of 198 to 200 °C.

Compound `CCOCc1nc2c(N)nc3cc(Br)cnc3c2n1CC1(O)CCCC1` gave a melting point of 166 to 168 °C.

In turn, `CCOC(=O)C(=O)CC(=O)c1ccc2c(c1)c(=O)c(CCC(=O)O)cn2Cc1ccc(F)cc1` gave a melting point of 177 to 180 °C.

In turn, `CN1C(=NC(=O)c2ccc(F)cc2)C(C(F)(F)F)(C(F)(F)F)NC1c1ccc(F)cc1` (centres undefined) gave a melting point of 132 to 133 °C.

For the compound `CCOc1cc2c(cc1OCC)C(C=Cc1ccc(O)c(OC)c1)=NN=C(C)C2`, the melting point lay in the range of 190 to 191 °C.

As to `COc1ncccc1-c1cc2cc(C(=O)NCCCN3CCOCC3)ccc2[nH]1`, the melting point was 224 to 225 °C.

Take `CS(=O)(=O)c1ccc(-c2cnn(-c3cccc(Cl)c3)c(=O)c2Cc2cccc(F)c2)cc1`: the melting point was in the range of 142 to 143 °C.

Compound `Cc1ccn(-c2ccc(C(=O)N3Cc4cccn4Cc4ccccc43)c(O)c2)n1` had a melting point of 134 to 136 °C.

Compound `COc1nsc2c1C(=O)CCC2` displayed a melting point of 45 to 46 °C.

Consider `CCOc1cc(Cc2cnc(N)nc2N)cc2c1OC(C)(C)C=C2CO`, for which the melting point lay in the range of 187 to 189 °C.

`COC(=O)c1ccc(SC)nc1OC`: the melting point was 71 to 75 °C.

`CCOc1ccc(CCCc2ccncc2)cc1` gave a melting point of 79 to 81 °C.

Take `Cc1nc(-c2cccc(CN(C(=O)Nc3ccc(Br)cc3)c3ccccc3)c2)no1`: the melting point lay in the range of 145 to 146 °C.

Turning to `c1ccc(C(c2ccccc2)c2ccncc2)cc1`, the melting point fell in the range of 124 to 126 °C.

Compound `Cn1cccc1C(=O)C(C#N)C(=O)Nc1ccc(O)cc1` (centres undefined) had a melting point of 182 to 184 °C.

Compound `COc1cc(NCCCCCCN2C(=O)c3ccccc3C2=O)c2nccc(C)c2c1` yielded a melting point of 84 to 85 °C.

`CCOC(=O)NCSSc1ccc([N+](=O)[O-])cc1C(Cl)(Cl)Cl` showed a melting point of 90 to 91 °C.

The compound `Cc1cc(C2=C(c3cccc(F)c3)C(=O)C(C)(C)O2)ccc1S(N)(=O)=O` returned a melting point of 81 to 82 °C.

Consider `CS(=O)(=O)c1ccc(N)c([N+](=O)[O-])c1`, for which the melting point lay within 195 to 198 °C.

Regarding `Cc1cccc2nc3c(cc12)sc1cccc(Cl)c13`, the melting point was in the range of 143 to 146 °C.

The compound `CC(C)(C)OC(=O)N[C@@H](C=O)Cc1ccc(OCc2ccccc2)cc1` gave a melting point of 98 to 99 °C.
